Measured values published in article PMC10055714, “The Hypolipidemic Characteristics of a Methanol Extract of Fermented Green Tea and Spore of Eurotium cristatum SXHBTBU1934 in Golden Hamsters” (Nutrients, 2023).

How the values were obtained:
[1] = tested on: oleic acid-induced HepG2 cell line model; test: Bodipy staining of lipid accumulation in oleic acid-induced HepG2 cells; type: cell-based; conditions: Homo sapiens, 24 h, OA-induced HepG2, read-out: Inhibitory Rate of lipid accumulation; for inhibition at 100 µg/mL: 100 μg/mL
Method: After treatment with compounds for 24 h in a 96-well plate, the supernatant of the HepG2 cells was discarded and cells were washed twice with PBS, then the cells were fixed with 4% paraformaldehyde at room temperature for 20 min. After removing the fixative reagent, the cells were washed twice with PBS. HepG2 cells were stained with 100 μL Bodipy (2 μg/mL, Thermo Fisher Scientific (Waltham, MA, USA)) in the dark at 25 °C for 30 min [30]. The fluorescence was measured using a fluorescence plate reader (Ex = 500 nm, Em = 550 nm, POLARstar, BMG Labtech (Offenburg, Germany)). The inhibition rate was calculated by comparison with the control group which was just treated with DMSO.

[2] = CCK-8 cell viability assay; conditions: human, HepG2 cells
Method: Human hepatoma HepG2 cells were obtained from the Beijing Union Medical Cell Resource Center (Basic Medical Cell Center, Institute of Basic Medical Sciences, Chinese Academy of Medical Sciences). The cells were cultured in DMEM containing 10% FBS and 1% penicillin–streptomycin and incubated with 5% CO2 at 37 °C. Cells were allowed to grow to approximately 80% confluency and were sub-cultured at a ratio of 1:3 [27]. In this study, to simulate the process of nonalcoholic fatty liver disease in vitro, 0.2 mM oleic acid (OA) was added to the culture medium for 48 h to induce human HepG2 to establish a nonalcoholic fatty liver cell model [28].
HepG2 cells were seeded into 96-well plates after achieving logarithmic growth and cultured overnight at 37 °C with 5% CO2. After treatment with different concentrations of compounds (dissolved in DMSO) for 24 h, 10 μL CCK-8 solution (Cell Counting Kit-8, Sigma-Aldrich (St. Louis, MO, USA)) was added to each well and the plate was incubated for 2 h in the incubator. Then, the absorbance at 450 nm was measured using a microplate reader. The normal control group was treated with the same amount of DMSO as the experiment group [29]. Cell viability was calculated by: cell viability (%) = (ODdrug/ODcontrol) × 100%.

[3] = tested on: oleic acid-induced HepG2 cell line model; test: Oil Red O staining of lipid accumulation in oleic acid-induced HepG2 cells; type: cell-based; conditions: Homo sapiens; Oil Red O assay, OA-induced HepG2, 24 h, area of lipid droplets; read-out: IC50 against lipid accumulation
Method: HepG2 cells were treated with different concentrations of compounds for 24 h, then were washed twice with PBS and fixed with 4% paraformaldehyde for 15–20 min. The cells were washed with PBS and stained with Oil Red O solution (50 µL per well, Sigma-Aldrich) at 25 °C for 1 h. After washed with PBS for 3–5 times, the lipid droplets and cell morphology were observed by a light microscope and photographed. The area of lipid droplets was statistically compared for IC50 calculation with the control group which was treated with DMSO using Image J software.

SMILES	inhibition at 100 µg/mL [1]	viability at 24 h, 100 μg/mL [2]	IC50 [3]	viability at 24 h, 25 μg/mL [2]	inhibition at 25 µg/mL ([1]; 25 μg/mL)
C=CC(C)(C)c1[nH]c2c(CC=C(C)C)cccc2c1/C=C1\NC(=O)[C@H](C)NC1=O [Compound 4, variecolorin G]	-15.3%				
C=CC(C)(C)c1[nH]c2cc(CC=C(C)C)ccc2c1/C=C1\NC(=O)[C@H](C)NC1=O [Compound 3, neoechinulin D]	-67.3%	11.2%			
C=CC(C)(C)c1[nH]c2c(CC3OC3(C)C)cccc2c1C=C1NC(=O)C(C)NC1=O (centres unmarked) [Compound 1, variecolorin P]	37.3%	110%	127 nM		
C=CC(C)(C)c1[nH]c2c(CC=C(C)C)cc(CC=C(C)C)cc2c1C[C@@H]1NC(=O)[C@H](C)NC1=O [Compound 5, echinulin]				94.5%	5.46%
